Source: patent publication US7968098B2, “HLA-A24-binding KIF-derived peptide” (Kurume University, priority 2006, dated 2011)
No end group written: not given here.

Tested on: KNS-81 cells
Assay: 6-h 51Cr-release cytotoxicity assay of peptide-stimulated PBMCs / CD8+ T cells
Type: cell-based, human
Settings: for Cytotoxicity of peptide-induced CD8+ T cells on addition of anti-HLA class I mAb / Cytotoxicity on addition of unlabeled C1R-A24 cells pre-pulsed with corresponding KIF peptide (cold inhibition): KNS-81 cells; for Cytotoxicity of peptide-induced CD8+ T cells on addition of anti-HLA class I mAb: FIG. 3A, not inhibited by anti-HLA class II (HLA-DR) or anti-CD14 mAb; for Cytotoxicity on addition of unlabeled C1R-A24 cells pre-pulsed with corresponding KIF peptide (cold inhibition): FIG. 3B, not inhibited by HIV peptide-pulsed C1R-A24 cells; for Cytotoxicity of peptide-stimulated PBMCs against KNS-81 cells: patients 3 and 5, HLA-A24+ KNS-81 vs HLA-A24- No. 11 cells and HLA-A24+ T-cell blasts
Method: Peptide-stimulated PBMCs were tested for their cytotoxicity against No. 11 (HLA-A24 negative) and KNS-81 (HLA-A24 positive) by a standard 6-h ^51Cr-release assay. Phytohaemagglutinin (PHA)-activated T cells (T cell blast) from HLA-A24 positive healthy donors were used as a negative control. The PBMCs were stimulated with each of the KIF peptides (10 μg/ml) in the presence of IL-2 (100 units/ml) every 3 days for 15 days, followed by incubation with IL-2 alone for an additional 15 days. After CD8^+ T cells were positively isolated using a CD8-positive isolation kit (Dynal, Oslo, Norway), 2,000 ^51Cr-labeled cells per well were cultured with effector cells in 96-round-well plates. The specific ^51Cr-release was calculated according to the following formula: % specific lysis=(test sample release−spontaneous release)×100/(maximum release−spontaneous release). Spontaneous release was determined using the supernatant of the sample incubated with no effector cells, and the maximum release was then determined by the supernatant of the sample incubated with 1% Triton X (Wako Pure Chemical Industries, Osaka, Japan). In some experiments, anti-HLA class I (W6/32, mouse IgG2a) (BioLegend, Camino Santa Fe, San Diego, Calif., USA), anti-HLA class II (HLA-DR) (L243, mouse IgG2a) (ATCC #HB-55), and anti-CD14 (JML-H14, mouse IgG2a) (established in Department of Immunology, Kurume University) mAb were added to the wells at the initiation of the culture. The specificity of peptide-stimulated PBMCs was also confirmed by a cold inhibition assay. 20,000 unlabeled C1R-A24 cells, which were pre-pulsed with either the HIV peptide or a corresponding peptide, were used as cold target cells. Unlabeled C1R-A24 cells were added at a hot to cold target ratio of […].

| Sequence | Cytotoxicity of peptide-induced CD8+ T cells on addition of anti-HLA class I mAb | Cytotoxicity on addition of unlabeled C1R-A24 cells pre-pulsed with corresponding KIF peptide (cold inhibition) | Cytotoxicity of peptide-stimulated PBMCs against KNS-81 cells |
| --- | --- | --- | --- |
| IYCERVRDLL [KIF1C 149-158] | significantly inhibited | significantly inhibited | higher level of cytotoxicity against HLA-A24^+ KNS-81 cells |
| KYKAMESKL [KIF3C 512-520] | significantly inhibited | significantly inhibited | higher level of cytotoxicity against HLA-A24^+ KNS-81 cells |
